Experimental data: patent US20210330611A1, “THERAPY FOR NEUROLOGICAL DISEASES/DISORDERS” (priority 2020, published 2021)
Where a name gives a salt, the structure may show the parent alone.

Legend:
[1] = system: LPS-induced microglia activation; assay: Image-based assay of LPS-induced microglia activation (HTS and dose response); format: cell-based, rat; details: primary microglia HTS, 10 μM, LPS-stimulated, cell size >800 μm^2 as marker of activation; for inhibition at 10 µM: Rattus norvegicus, Microglia, read-out: LPS % inhibition
primary rat microglia [2] = assay: Cell toxicity (dead cells, size <150 μm2) in coated fibrin (cFib) assay; details: primary microglia HTS, 10 μM, fibrin assay, cell size <150 μm^2 as marker of toxicity;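 further: share of dead cells sized under 150 µm2 at 10 µM in fibrin-stimulated microglia HTS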
[3] = system: fibrin-induced microglia activation; assay: Image-based assay of fibrin-induced microglia activation (HTS and dose response); format: cell-based, rat; details: primary microglia HTS, 10 μM, fibrin-stimulated, cell size >800 μm^2 as marker of activation; for inhibition at 10 µM: Rattus norvegicus, Microglia, read-out: Fibrin % inhibition
[4] = system: fibrin- and LPS-induced microglia activation; assay: cells; format: cell-based, rat; details: HTS of 1907 compounds, quadrant by fibrin and LPS inhibition
primary rat microglia [5] = assay: Cell toxicity (dead cells, size <150 μm2) in LPS assay; details: primary microglia HTS, 10 μM, LPS assay, cell size <150 μm^2 as marker of toxicity

Structure (SMILES) | inhibition at 10 µM [1] [%] | Fibrin % cell toxicity (primary rat microglia [2]) [%] | inhibition at 10 µM [3] [%] | Quadrant (FIG. 5b) [4] | LPS % cell toxicity (primary rat microglia [5]) [%] | LPS % inhibition [1] [%] | Fibrin % inhibition [3] [%]
CC1(C)O[C@@H]2[C@@H](CO[C@@]3(COS(N)(=O)=O)OC(C)(C)O[C@@H]23)O1 [Topiramate] | 5 | 1 | 4 | Q4 | 0 | – | –
Cc1cccc(Nc2ccncc2S(=O)(=O)NC(=O)NC(C)C)c1 [Torasemide] | 7 | 1 | -29 | Q4 | 0 | – | –
COc1ccc(/C=C/C(=O)Nc2ccccc2C(=O)O)cc1OC [Tranilast] | 22 | 0 | 35 | Q4 | 0 | – | –
CC(C)OC(=O)CCC/C=C\C[C@@H]1[C@@H](/C=C/[C@@H](O)COc2cccc(C(F)(F)F)c2)[C@H](O)C[C@@H]1O [Travoprost] | 15 | 1 | 4 | Q4 | 0 | – | –
CC(=O)OCC(COC(C)=O)OC(C)=O [Triacetin] | 15 | 1 | -32 | Q4 | 0 | – | –
NS(=O)(=O)c1cc2c(cc1Cl)NC(C(Cl)Cl)NS2(=O)=O (centres unmarked) [Trichlormethiazide] | 13 | 1 | 17 | Q4 | 0 | – | –
Oc1cc(Cl)ccc1Oc1ccc(Cl)cc1Cl [Triclosan] | 16 | 1 | -6 | Q4 | 1 | – | –
C[C@]12CC[C@H]3[C@@H](CC[C@@]45O[C@@H]4C(O)=C(C#N)C[C@]35C)[C@@H]1CC[C@@H]2O [Trilostane] | 11 | 0 | -24 | Q4 | 0 | – | –
COc1ccc(CN2CCNCC2)c(OC)c1OC [Trimetazidine] | 1 | 1 | -18 | Q4 | 0 | – | –
CN1C(=O)OC(C)(C)C1=O [Trimethadione] | 14 | 1 | -5 | Q4 | 0 | – | –
COc1cc(C(=O)NCc2ccc(OCCN(C)C)cc2)cc(OC)c1OC [Trimethobenzamide] | 17 | 1 | 16 | Q4 | 0 | – | –
COc1cc(C(=O)N2CCOCC2)cc(OC)c1OC [Trimetozine] | 12 | 1 | 2 | Q4 | 0 | – | –
Cc1cc2cc3c(C)cc(=O)oc3c(C)c2o1 [Trioxsalen] | 18 | 1 | -18 | Q4 | 0 | – | –
CN(C)CCN(Cc1ccccc1)c1ccccn1 [Tripelennamine] | 25 | 1 | 14 | Q4 | 0 | – | –
CC(C)C[C@H](NC(=O)[C@@H](Cc1c[nH]c2ccccc12)NC(=O)[C@H](Cc1ccc(O)cc1)NC(=O)[C@H](CO)NC(=O)[C@H](Cc1c[nH]c2ccccc12)NC(=O)[C@H](Cc1c[nH]cn1)NC(=O)[C@@H]1CCC(=O)N1)C(=O)N[C@@H](CCCNC(=N)N)C(=O)N1CCC[C@H]1C(=O)NCC(N)=O [Triptorelin] | – | 1 | – | Q4 | 0 | 4 | −15
Cc1c(C)c2c(c(C)c1O)CCC(C)(COc1ccc(CC3SC(=O)NC3=O)cc1)O2 (centres unmarked) [Troglitazone] | 4 | 1 | -22 | Q4 | 0 | – | –
CN1[C@@H]2CC[C@H]1C[C@@H](OC(=O)c1c[nH]c3ccccc13)C2 [Tropisetron] | 14 | 0 | -28 | Q4 | 0 | – | –
O=C(O[C@H]1C[C@H]2CC[C@@H](C1)[N+]21CCCC1)C(O)(c1ccccc1)c1ccccc1 [Trospium Chloride] | 9 | 0 | -39 | Q4 | 1 | – | –
C[C@@H]1O[C@@H](OC[C@H]2O[C@@H](Oc3c(-c4ccc(OCCO)c(OCCO)c4)oc4cc(OCCO)cc(O)c4c3=O)[C@H](O)[C@@H](O)[C@@H]2O)[C@H](O)[C@H](O)[C@H]1O [Troxerutin] | 8 | 0 | -10 | Q4 | 0 | – | –
CCCCCC(C)N (centres unmarked) [Tuaminoheptane Sulfate] | 19 | 1 | -7 | Q4 | 0 | – | –
COc1cc2c3cc1Oc1cc(ccc1O)C[C@@H]1c4c(cc(OC)c(O)c4Oc4ccc(cc4)C[C@@H]3N(C)CC2)CC[N+]1(C)C [Tubocurarine] | 19 | 0 | -1 | Q4 | 0 | – | –
CC(C)(C)NCC(O)c1ccccc1Cl.Cl (centres unmarked) [Tulobuterol, Tulobuterol Hydrochloride] | – | 0 | – | Q4 | 0 | 36 | 21
O=c1cc[nH]c(=O)[nH]1 [Uracil] | 11 | 0 | 3 | Q4 | 0 | – | –
COc1ccccc1N1CCN(CCCNc2cc(=O)n(C)c(=O)n2C)CC1 [Urapidil Hydrochloride] | 20 | 1 | -6 | Q4 | 0 | – | –
NC(N)=O [Urea] | – | 1 | – | Q4 | 0 | 20 | −14
C[C@H](CCC(=O)O)[C@H]1CC[C@H]2[C@@H]3[C@@H](O)C[C@@H]4C[C@H](O)CC[C@]4(C)[C@H]3CC[C@]12C [Ursodeoxycholic Acid] | – | 1 | – | Q4 | 0 | 1 | −18
C[C@H](CCC(=O)O)[C@H]1CC[C@H]2[C@@H]3[C@@H](O)C[C@@H]4C[C@H](O)CC[C@]4(C)[C@H]3CC[C@]12C [Ursodiol] | – | 0 | – | Q4 | 0 | 18 | −21
CC(C)[C@H](N)C(=O)OCCOCn1cnc2c(=O)[nH]c(N)nc21 [Valaciclovir] | 15 | 1 | 12 | Q4 | 0 | – | –
